Key:
[1] = test system: MCF-7 human breast cancer cells; assay: Cytotoxicity assay against MCF-7 cells; assay type: cell-based
[2] = test system: HT-29 human colon cancer cells; assay: Cytotoxicity assay against HT-29 cells; assay type: cell-based
[3] = test system: HT-29 cells; assay: Mitochondrial transmembrane potential; assay type: cell-based, human; details: 2 h treatment, JC-1 dye

Row | Compound | ED50 against MCF-7 cells [1] [µM] | ED50 against HT-29 cells [2] [µM] | ED50 in mitochondrial transmembrane potential assay [3] [µM]
1 | CC(=O)O[C@@H]([C@H]1C[C@@H]1C(=O)C(C)OC(=O)/C=C/c1ccc(O)cc1)[C@H]1CC=CC(=O)O1 (stereo partly drawn) [Compound 1, Brevipolide A] | > 10 | 5.8 | 
2 | CC(=O)O[C@@H]([C@H]1C[C@@H]1C(=O)C(C)OC(=O)/C=C\c1ccc(O)cc1)[C@H]1CC=CC(=O)O1 (stereo partly drawn) [Compound 2, Brevipolide B] | 6.1 | 6.1 | 
3 | CC(OC(=O)/C=C/c1ccc(O)c(O)c1)C(=O)[C@H]1C[C@@H]1[C@H](O)[C@H]1CC=CC(=O)O1 (stereo partly drawn) [Compound 3, Brevipolide C] |  |  | 0.0085
4 | CC(OC(=O)/C=C\c1ccc(O)cc1)C(=O)[C@H]1C[C@@H]1[C@H](O)[C@H]1CC=CC(=O)O1 (stereo partly drawn) [Compound 6, Brevipolide F] | 6.7 | 7.5 | 
5 | COc1ccc(-c2oc3cc(OC)c(O)c(O)c3c(=O)c2OC)cc1O [Compound 8, 5,6,3′-trihydroxy-3,7,4′-trimethoxyflavone] |  | 3.6 | 0.31
